Results on one compound are retold here after patent US7887851B2, “Aromatase activator” (Kao Corporation, priority 2004, dated 2011).

The subject of experiment [1] is transcription control region for exon 1b of human aromatase gene. Put plainly: Luciferase reporter assay, Ex1b-luc in HepG2 cell (expression of exon 1b of aromatase gene). In kind it is cell-based. As to conditions: added at 1%, 20 hours. The protocol: The region containing transcription control region for exon 1b of human aromatase gene and a part of the exon 1b was amplified by PCR from genomic DNA extracted from human normal keratinocyte by using the following primers: […]
The resulting PCR product was treated with restriction enzymes SpeI and EcoRI, and incorporated in SpeI site and EcoRI site in SeaPansy null Control Vector (Toyo Ink Mfg. Co., Ltd.) to produce Ex1b-luc plasmid. This plasmid was used in the luciferase assay as will be described below.
Immortalized human hepatoma-derived cell (HepG2 cell) […]
The transfected cells were cultivated overnight, and plant extract prepared in Production Example 1, Table 2, or yeast extract (“YeastLiquid B”, Ichimaru Pharcos Co Ltd.), silk protein extract (“Silkgen G Soluble KE”, Ichimaru Pharcos Co Ltd.), milk protein (“Bioderma SX-14” Ichimaru Pharcos Co Ltd.), “lactoferrin S FREE”, Ichimaru Pharcos Co Ltd.), natto extract (“Soybean polymer F B-20”, Ichimaru Pharcos Co Ltd.), or royal jelly (“royal jelly extract”, Ichimaru Pharcos Co Ltd.) was added (1% or 0.1%), and the cultivation was continued for another 20 hours. After adding 20 μL of alamarBlue (BIOSOURCE), fluorescence intensity (excitation light 544 nm, fluorescence 590 nm) was measured. Luciferase activity was also measured by using PicaGene Dual SeaPansy Luminescence kit (Nippon Gene). […]
(In general: Reporter assays use an easily measured gene product as a stand-in for the process of interest.)

The test system of the next experiment is HepG2 cell. Put plainly: alamarBlue fluorescence in Ex1b-luc transfected HepG2 cell. In kind it is cell-based, human. The following applies: added at 1%, 20 hours. The protocol:
Immortalized human hepatoma-derived cell (HepG2 cell)
HepG2 cell was inoculated to 96 well culture plate at 30,000 cells per well, and Ex1b-luc was introduced using lipofectamine reagent (Invitrogen) according to the protocol described in the attached manual. The DNA was used at an amount of 0.1 μg per well. The same procedure was repeated for control without adding the DNA (2 wells).
The transfected cells were cultivated overnight, and plant extract prepared in Production Example 1, Table 2, or yeast extract (“YeastLiquid B”, Ichimaru Pharcos Co Ltd.), silk protein extract (“Silkgen G Soluble KE”, Ichimaru Pharcos Co Ltd.), milk protein (“Bioderma SX-14” Ichimaru Pharcos Co Ltd.), “lactoferrin S FREE”, Ichimaru Pharcos Co Ltd.), natto extract (“Soybean polymer F B-20”, Ichimaru Pharcos Co Ltd.), or royal jelly (“royal jelly extract”, Ichimaru Pharcos Co Ltd.) was added (1% or 0.1%), and the cultivation was continued for another 20 hours. After adding 20 μL of alamarBlue (BIOSOURCE), fluorescence intensity (excitation light 544 nm, fluorescence 590 nm) was measured. Luciferase activity was also measured by using PicaGene Dual SeaPansy Luminescence kit (Nippon Gene). The cells were lysed by adding 25 μL per well of the lysis buffer that had been diluted 5× lysis buffer to 1× concentration.
For orientation: Resazurin is reduced to fluorescent resorufin, in cell work by metabolically active cells.

`OC[C@H]1O[C@H](O[C@H]2O[C@H](CO)[C@@H](O)[C@H](O)[C@H]2O)[C@H](O)[C@@H](O)[C@@H]1O` [Trehalose, trehalose]: the Luciferase activity in experiment [1] was determined as 141.0%. For the same compound, in the experiment with HepG2 cell, the AlamarBlue activity is recorded as 113.9%.
